Source: patent publication US20210015793A1, “COMPOUNDS FOR TREATING CNS- AND NEURODEGENERATIVE DISEASES” (ETH ZURICH, priority 2018, published 2021)
Read-outs that look alike come from different tables or passages of the source.

Assays:
[1] = test system: rats subjected to the CUMS protocol; assay: Sucrose preference test (anhedonia) in rats subjected to CUMS; format: in vivo, rat; conditions: treated during CUMS
Protocol: The following stimuli were administered each week in a random order: two periods (7 h and 17 h) of 45° cage tilt; soaked cage for 17 h; food deprivation (24 h) and water deprivation (12 h), twice a week; paired housing (17 h); overnight illumination during the dark phase, twice a week; noise (85 dB) in the room for 5 h, twice a week; flashing light (60 flashes/min) for 6 h, three times a week (AbdAlla et al., Biomed. Res. Int. 2015:917156 (2015); El-faramawy et al., Pharmacol. Biochem. Behav. 91, 339-344 (2009)). The sucrose preference test (2% sucrose in water) was done immediately after a period of food and water deprivation.
Symptoms of depression and anhedonia induced by the CUMS protocol as a typical model of depression were determined by the sucrose preference test. For the sucrose preference test, rats (or mice) were trained to consume a sucrose solution (2%), which was put in the cage with a bottle of water. The sucrose consumption was determined at baseline for two weeks before the CUMS protocol (1 test per week, for 1 h, at 9-10 a.m.), and after 4 weeks of CUMS immediately after a period of food (24 h) and water (12 h) deprivation. The ratio of the sucrose-to-water consumption was determined. […] Similarly, the treatment effect of illustrative compounds on prevention of symptoms of depression was assessed by the sucrose preference test. […]

[2] = Serum concentration by HPLC in healthy human research participants (phase-1 study); format: in vivo; conditions: for concentration at 24 h: both sexes, human, serum, oral, 60 mg/day
Protocol: Dog serum concentrations of Compound-1, Compound-1F and Compound-4 were determined with serum isolated from the blood of German shepherd dogs (age: 8-9 months) taken at different time points (2 h, 4 h, 6 h, 8, 10 h, 24 h) after oral drug intake. The steady-state serum concentrations of Compound-1, Compound-1F and Compound-4 were determined in mice with blood isolated at the end of the study by cardiac puncture. Serum proteins were removed by acetonitrile precipitation, and compounds were extracted by chloroform before separation on an HPLC-C18 column (Poroshell 120 EC-C18, Agilent) with an HPLC system (Agilent 1100 Series) and detection at OD 280 nm, for Compound-1 and Compound-1F. Detection of Compound-4 was performed at OD 310 nm. The same extraction method was also used to determine Compound-1F in the serum of healthy human research participants. Dog hematology and biochemical parameters were determined by the Center of Applied Analytical and Veterinary Studies, Cairo, Egypt. ECG and blood pressure were measured by Dr. Mohamed Elsaed, Electrocardiography Unit, Faculty of Veterinary Medicine, Cairo University. The study was approved by the ethical committee of the Center of Applied and Veterinary Studies, Cairo, Egypt. Clinical laboratory parameters of human research participants were determined by the Rabaa El Adaweya Medical Central Hospital, Cairo, Egypt.
(§1) Study design: The study was a three-part phase-1, randomized, placebo-controlled study of Compound-1F. The primary end-point was safety and tolerability. Secondary objectives were plasma pharmacokinetics data (part-1, part-2, part-3) and peripheral blood mononuclear cell MPP1 status (part-3).
(§2) The first part (part-1) was a single ascending dose-effect study with three cohorts of 4 healthy research participants each, who received a single dose of 20 mg, 40 mg or 60 mg in subsequent cohorts. Three drug-treated and one placebo-treated subjects were randomized in each cohort (2 males, 2 females; age: 35-65 years). After completion of safety assessment, blood was drawn for analysis of pharmacokinetics data.
(§3) In the second part (part-2) of the study, the daily dose was increased every two days until the final dose of 60 mg/day was reached, i.e. the daily dose was 20 mg on day-1 and day-2, 40 mg on day-3 and day-4, and 60 mg on day-5 until day-14. Blood was drawn before study begin for analysis of laboratory parameters and on day-14 for analysis of laboratory parameters and determination of pharmacokinetics data, at the indicated time points after administration of the last dose of 60 mg. All study participants (n=10; 7 males, 3 females; Caucasians; age: 37-66 years; 8 participants received drug, and two received placebo) were healthy and had the possibility to withdraw from the study at any time. All study participants wanted to complete the study.
In the third part (part-3) of the study, a cohort of 8 healthy elderly voluntary research participants (7 males, 1 female; age 60-73 years; all Caucasians) received a daily oral dose of 60 mg of Compound-1F for 28 days (6 participants received drug, 2 placebo). In part-3 of the study, blood was drawn before study begin for analysis of clinical laboratory parameters and MPP1 status, and on day-28 for analysis of laboratory parameters and MPP1 status, and 24 h after the last drug intake for measurement of serum concentration of Compound-1F. […]

[3] = Safety and tolerability in healthy human research participants (phase-1 study); format: in vivo
Protocol: as §1, §2, §3
In the third part (part-3) of the study, a cohort of 8 healthy elderly voluntary research participants (7 males, 1 female; age 60-73 years; all Caucasians) received a daily oral dose of 60 mg of Compound-1F for 28 days (6 participants received drug, 2 placebo). In part-3 of the study, blood was drawn before study begin for analysis of clinical laboratory parameters and MPP1 status, and on day-28 for analysis of laboratory parameters and MPP1 status, and 24 h after the last drug intake for measurement of serum concentration of Compound-1F. All participants of part-3 had the possibility to withdraw from the study at any time but all study participants wanted to complete the study.
The study participants were under the medical supervision of the Rabaa El Adaweya Medical Central Hospital, Cairo, Egypt (Clinical study director: Dr. Raafat Mahmood Fawzy). […] One participant in the placebo group and 1 participant in the drug treatment group (part-2 of the study) reported softer stools beginning on day-3 after drug/placebo intake. This side effect ended after completion of the study, and was most likely due to the intake of mannitol, which was used as an additive for formulation of study drug and placebo. There were no other adverse effects in part-1, part-2 and part-3 of the study.

[4] = healthy humans, 14 days of repeated once daily oral dosing

Compound	sucrose consumption in sucrose preference test ([1]; 16-month-old rats, 4 weeks CUMS, vs non-stressed control group)	CUMS-induced anhedonia in sucrose preference test ([1]; young rats (aged 4 months))	concentration at 24 h ([2]; elderly research participants, 28 days once daily 60 mg, read-out: steady-state serum concentration at 24 h after the last drug intake) [ng/mL]	concentration at 24 h ([2]; healthy humans, repeated dosing 60 mg/day, read-out: serum concentration at 24 h after intake of the last dose) [ng/mL]	dose dependence of serum concentration ([2]; healthy humans, oral Compound-1F 20, 40, 60 mg)	peak serum concentration at t=6 h ([2]; healthy humans, repeated dosing 60 mg/day, n=8) [µg/mL]	time of peak serum concentration after drug intake ([2]; healthy humans, repeated dosing with 60 mg/day) [h]	clinical laboratory parameters and cardiovascular examination data (blood pressure, heart rate) ([3]; all research participants, during and after the study (observation period 4 weeks))	drug-related adverse events (safety assessment) ([3]; elderly participants, 28 days once daily 60 mg)	clinical laboratory findings ([3]; elderly participants, before and after 28 days of once daily 60 mg)	percentage of neutrophils and lymphocytes [3, 4]	total number of white blood cells [3, 4]	hematologic parameters (Hb, HCT, MCV, MCHC, RBCs) before vs after treatment ([3]; healthy humans, once daily 60 mg, 14 days of study)	treatment related adverse effects (safety assessment) ([3]; healthy humans, oral Compound-1F, single ascending dose 20-60 mg)	kidney (serum urea, creatinine) and liver (AST, ALT) function parameters ([3]; healthy humans, repeated once daily 60 mg/d)	participants in the drug treatment group reporting softer stools ([3]; part-2 of the study, beginning on day-3, attributed to mannitol) [participant]
O=C(C1=C(O)C(c2ccccc2)N(c2ccc3c(c2)OCO3)C1=O)C1CC1 (stereo not shown) [Compound-1, 1-(1,3-benzodioxol-5-yl)-4-(cyclopropane-carbonyl)-3-hydroxy-2-phenyl-2H-pyrrol-5-one]	not significantly different from the non-stressed control group	prevented the development of CUMS-induced anhedonia and symptoms of depression														
O=C(C1=C(O)C(c2ccc(F)cc2)N(c2ccc3c(c2)OCO3)C1=O)C1CC1 (stereo not shown) [Compound-1F, 1-(1,3-Benzodioxol-5-yl)-4-(cyclopropanecarbonyl)-2-(4-fluorophenyl)-3-hydroxy-2H-pyrrol-5-one]			1540 ± 310	1470 ± 330	dose-dependent increase	5.33 ± 0.76	6	within the normal range	no drug-related adverse events	within the normal range	within the normal range	not altered	not significantly different	no treatment related adverse effects	within the normal range	1
